“And” between values parts separate entries of the source, which are not always exact repeats. Equal values may be shown once. Toxic doses and inconclusive results are not listed.
Test system: CD2F1 mice, L1210 leukemia ip, survival T/C
Experiment: NCI In Vivo Anticancer Drug Screen. Data for tumor model L1210 Leukemia (intraperitoneal) in CD2F1 (CDF1) mice
Conditions: higher = longer survival
Outline: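 Compound-dosed mice with transplantable tumor versus matched vehicle controls; endpoint ratio T/C reported.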

## CO[C@@]12[C@H](COC(N)=O)C3=C(C(=O)C(C)=C(N)C3=O)N1C[C@@H]1N[C@@H]12
endpoint: mean survival time, dose: 0.25 mg/kg/injection, schedule: Q01DX009 (ip), vehicle: saline
  T/C: 118 % of control and 121 % of control
endpoint: mean survival time, dose: 0.38 mg/kg/injection, schedule: Q01DX009 (ip), vehicle: water
  T/C: 103 % of control
endpoint: mean survival time, dose: 0.4 mg/kg/injection, schedule: Q04DX003 (ip), vehicle: water
  T/C: 111 % of control
endpoint: mean survival time, dose: 0.45 mg/kg/injection, schedule: Q01DX007 (ip), vehicle: acetone
  T/C: 117 % of control
endpoint: mean survival time, dose: 0.5 mg/kg/injection, schedule: Q01DX009 (ip), vehicle: water
  T/C: 113 % of control
endpoint: mean survival time, dose: 0.6 mg/kg/injection, schedule: Q01DX001 (ip), vehicle: carboxymethylcellulose (CMC)
  T/C: 111 % of control
endpoint: mean survival time, dose: 0.65 mg/kg/injection, schedule: Q04DX003 (ip), vehicle: water
  T/C: 111 % of control
endpoint: mean survival time, dose: 0.68 mg/kg/injection, schedule: Q01DX007 (ip), vehicle: acetone
  T/C: 121 % of control
endpoint: mean survival time, dose: 0.68 mg/kg/injection, schedule: Q03DX004 (ip), vehicle: acetone
  T/C: 119 % of control
endpoint: mean survival time, dose: 0.75 mg/kg/injection, schedule: Q01DX005 (ip), vehicle: clinical formulation
  T/C: 120 % of control
endpoint: mean survival time, dose: 0.75 mg/kg/injection, schedule: Q01DX009 (ip), vehicle: water
  T/C: 104 % of control
endpoint: mean survival time, dose: 0.87 mg/kg/injection, schedule: Q01DX001 (ip), vehicle: acetone
  T/C: 110 % of control
endpoint: mean survival time, dose: 1.0 mg/kg/injection, schedule: Q01DX009 (ip), vehicle: water
  T/C: 115 % of control
endpoint: mean survival time, dose: 1.0 mg/kg/injection, schedule: Q04DX003 (ip), vehicle: saline
  T/C: 116 % of control
endpoint: mean survival time, dose: 1.1 mg/kg/injection, schedule: Q04DX003 (ip), vehicle: water
  T/C: 119 % of control
endpoint: mean survival time, dose: 1.2 mg/kg/injection, schedule: Q01DX001 (ip), vehicle: carboxymethylcellulose (CMC)
  T/C: 116 % of control
endpoint: mean survival time, dose: 1.5 mg/kg/injection, schedule: Q01DX001 (ip), vehicle: saline
  T/C: 105 % of control
endpoint: mean survival time, dose: 1.5 mg/kg/injection, schedule: Q01DX005 (ip), vehicle: clinical formulation
  T/C: 151 % of control
endpoint: mean survival time, dose: 1.55 mg/kg/injection, schedule: Q02DX005 (ip), vehicle: saline
  T/C: 119 % of control
endpoint: mean survival time, dose: 1.55 mg/kg/injection, schedule: Q03DX004 (ip), vehicle: saline
  T/C: 116 % of control
endpoint: mean survival time, dose: 1.55 mg/kg/injection, schedule: Q04DX003 (ip), vehicle: saline
  T/C: 114 % of control
endpoint: mean survival time, dose: 1.55 mg/kg/injection, schedule: Q08DX002 (ip), vehicle: saline
  T/C: 104 % of control
endpoint: mean survival time, dose: 1.75 mg/kg/injection, schedule: Q01DX001 (ip), vehicle: carboxymethylcellulose (CMC)
  T/C: 110 % of control
endpoint: mean survival time, dose: 1.75 mg/kg/injection, schedule: Q01DX001 (ip), vehicle: saline
  T/C: 120 % of control
endpoint: mean survival time, dose: 2.0 mg/kg/injection, schedule: Q01DX009 (ip), vehicle: water
  T/C: 107 % of control
endpoint: mean survival time, dose: 2.0 mg/kg/injection, schedule: Q04DX003 (ip), vehicle: saline
  T/C: 119 % of control
endpoint: mean survival time, dose: 2.3 mg/kg/injection, schedule: Q01DX001 (ip), vehicle: acetone
  T/C: 150 % of control
endpoint: mean survival time, dose: 2.3 mg/kg/injection, schedule: Q01DX001 (ip), vehicle: carboxymethylcellulose (CMC)
  T/C: 118 % of control and 111 % of control
endpoint: mean survival time, dose: 2.33 mg/kg/injection, schedule: Q02DX005 (ip), vehicle: saline
  T/C: 119 % of control
endpoint: mean survival time, dose: 2.33 mg/kg/injection, schedule: Q03DX004 (ip), vehicle: saline
  T/C: 123 % of control
endpoint: mean survival time, dose: 2.33 mg/kg/injection, schedule: Q04DX003 (ip), vehicle: saline
  T/C: 121 % of control
endpoint: mean survival time, dose: 2.33 mg/kg/injection, schedule: Q08DX002 (ip), vehicle: saline
  T/C: 111 % of control
endpoint: mean survival time, dose: 2.9 mg/kg/injection, schedule: Q01DX001 (ip), vehicle: saline
  T/C: 124 % of control
endpoint: mean survival time, dose: 3.0 mg/kg/injection, schedule: Q01DX001 (ip), vehicle: saline
  T/C: 124 % of control
endpoint: mean survival time, dose: 3.0 mg/kg/injection, schedule: Q01DX005 (ip), vehicle: clinical formulation
  T/C: 113 % of control and 98 % of control
endpoint: mean survival time, dose: 3.0 mg/kg/injection, schedule: Q01DX009 (ip), vehicle: water
  T/C: 101 % of control and 108 % of control
endpoint: mean survival time, dose: 3.0 mg/kg/injection, schedule: Q04DX003 (ip), vehicle: saline
  T/C: 170 % of control
endpoint: mean survival time, dose: 3.5 mg/kg/injection, schedule: Q01DX001 (ip), vehicle: acetone
  T/C: 156 % of control
endpoint: mean survival time, dose: 3.5 mg/kg/injection, schedule: Q01DX001 (ip), vehicle: carboxymethylcellulose (CMC)
  T/C: 155 % of control
endpoint: mean survival time, dose: 3.5 mg/kg/injection, schedule: Q04DX003 (ip), vehicle: saline
  T/C: 123 % of control
endpoint: mean survival time, dose: 3.5 mg/kg/injection, schedule: Q08DX002 (ip), vehicle: saline
  T/C: 121 % of control
endpoint: mean survival time, dose: 4.5 mg/kg/injection, schedule: Q01DX001 (ip), vehicle: saline
  T/C: 108 % of control
endpoint: mean survival time, dose: 4.7 mg/kg/injection, schedule: Q01DX001 (ip), vehicle: saline
  T/C: 122 % of control
endpoint: mean survival time, dose: 5.0 mg/kg/injection, schedule: Q04DX003 (ip), vehicle: water
  T/C: 150 % of control
endpoint: mean survival time, dose: 5.25 mg/kg/injection, schedule: Q01DX001 (ip), vehicle: carboxymethylcellulose (CMC)
  T/C: 176 % of control
endpoint: mean survival time, dose: 5.25 mg/kg/injection, schedule: Q01DX004 (ip), vehicle: saline
  T/C: 152 % of control
endpoint: mean survival time, dose: 5.25 mg/kg/injection, schedule: Q01DX005 (ip), vehicle: saline
  T/C: 165 % of control
endpoint: mean survival time, dose: 7.0 mg/kg/injection, schedule: Q01DX003 (ip), vehicle: saline
  T/C: 150 % of control
endpoint: mean survival time, dose: 7.0 mg/kg/injection, schedule: Q04DX003 (ip), vehicle: saline
  T/C: 152 % of control
endpoint: mean survival time, dose: 8.3 mg/kg/injection, schedule: Q04DX003 (ip), vehicle: water
  T/C: 119 % of control
endpoint: mean survival time, dose: 10.5 mg/kg/injection, schedule: Q01DX001 (ip), vehicle: carboxymethylcellulose (CMC)
  T/C: 114 % of control
endpoint: mean survival time, dose: 12.0 mg/kg/injection, schedule: Q01DX001 (ip), vehicle: saline
  T/C: 112 % of control
endpoint: median survival time, dose: 0.1 mg/kg/injection, schedule: Q01DX009 (ip), vehicle: saline
  T/C: 192 % of control
endpoint: median survival time, dose: 0.1 mg/kg/injection, schedule: Q04DX003 (ip), vehicle: saline
  T/C: 108 % of control
endpoint: median survival time, dose: 0.12 mg/kg/injection, schedule: Q01DX009 (ip), vehicle: Klucel (hydroxypropylcellulose) (HPC)
  T/C: 102 % of control
endpoint: median survival time, dose: 0.2 mg/kg/injection, schedule: Q01DX009 (ip), vehicle: saline
  T/C: 113 % of control
endpoint: median survival time, dose: 0.2 mg/kg/injection, schedule: Q04DX003 (ip), vehicle: saline
  T/C: 107 % of control
endpoint: median survival time, dose: 0.25 mg/kg/injection, schedule: Q01DX009 (ip), vehicle: Klucel (hydroxypropylcellulose) (HPC)
  T/C: 102 % of control
endpoint: median survival time, dose: 0.25 mg/kg/injection, schedule: Q01DX009 (ip), vehicle: saline
  T/C: 109 % of control
endpoint: median survival time, dose: 0.25 mg/kg/injection, schedule: Q01DX009 (ip), vehicle: water
  T/C: 115 % of control
endpoint: median survival time, dose: 0.4 mg/kg/injection, schedule: Q01DX001 (ip), vehicle: saline
  T/C: 113 % of control
endpoint: median survival time, dose: 0.4 mg/kg/injection, schedule: Q01DX009 (ip), vehicle: saline
  T/C: 124 % of control
endpoint: median survival time, dose: 0.4 mg/kg/injection, schedule: Q04DX003 (ip), vehicle: saline
  T/C: 109 % of control
endpoint: median survival time, dose: 0.5 mg/kg/injection, schedule: Q01DX009 (ip), vehicle: Klucel (hydroxypropylcellulose) (HPC)
  T/C: 104 % of control
endpoint: median survival time, dose: 0.5 mg/kg/injection, schedule: Q01DX009 (ip), vehicle: saline
  T/C: 118 % of control
endpoint: median survival time, dose: 0.75 mg/kg/injection, schedule: Q01DX001 (ip), vehicle: saline
  T/C: 115 % of control
endpoint: median survival time, dose: 0.8 mg/kg/injection, schedule: Q01DX001 (ip), vehicle: saline
  T/C: 112 % of control
endpoint: median survival time, dose: 0.8 mg/kg/injection, schedule: Q04DX003 (ip), vehicle: saline
  T/C: 124 % of control
endpoint: median survival time, dose: 1.0 mg/kg/injection, schedule: Q01DX009 (ip), vehicle: Klucel (hydroxypropylcellulose) (HPC)
  T/C: 116 % of control
endpoint: median survival time, dose: 1.6 mg/kg/injection, schedule: Q01DX009 (ip), vehicle: saline
  T/C: 165 % of control
endpoint: median survival time, dose: 1.8 mg/kg/injection, schedule: Q01DX001 (ip), vehicle: water
  T/C: 116 % of control and 102 % of control and 105 % of control
endpoint: median survival time, dose: 2.4 mg/kg/injection, schedule: Q03DX003 (ip), vehicle: saline
  T/C: 118 % of control and 203 % of control
endpoint: median survival time, dose: 3.2 mg/kg/injection, schedule: Q01DX009 (ip), vehicle: saline
  T/C: 96 % of control
endpoint: median survival time, dose: 3.2 mg/kg/injection, schedule: Q04DX003 (ip), vehicle: saline
  T/C: 168 % of control
endpoint: median survival time, dose: 3.6 mg/kg/injection, schedule: Q01DX001 (ip), vehicle: saline
  T/C: 155 % of control and 160 % of control
endpoint: median survival time, dose: 4.0 mg/kg/injection, schedule: Q01DX009 (ip), vehicle: saline
  T/C: 97 % of control
endpoint: median survival time, dose: 4.8 mg/kg/injection, schedule: Q01DX001 (ip), vehicle: saline
  T/C: 166 % of control
endpoint: median survival time, dose: 4.8 mg/kg/injection, schedule: Q03DX003 (ip), vehicle: saline
  T/C: 190 % of control
endpoint: median survival time, dose: 5.0 mg/kg/injection, schedule: Q01DX001 (ip), vehicle: water
  T/C: 113 % of control and 115 % of control
endpoint: median survival time, dose: 5.4 mg/kg/injection, schedule: Q01DX001 (ip), vehicle: saline
  T/C: 166 % of control
endpoint: median survival time, dose: 6.0 mg/kg/injection, schedule: Q01DX009 (ip), vehicle: clinical formulation
  T/C: 98 % of control
endpoint: median survival time, dose: 6.4 mg/kg/injection, schedule: Q01DX001 (ip), vehicle: saline
  T/C: 156 % of control
endpoint: median survival time, dose: 8.0 mg/kg/injection, schedule: Q01DX001 (ip), vehicle: saline
  T/C: 156 % of control and 172 % of control
endpoint: median survival time, dose: 8.3 mg/kg/injection, schedule: Q01DX001 (ip), vehicle: water
  T/C: 123 % of control
